The values that follow come from patent US5955616A, “Pyrrolidine derivatives having phospholipase A2 inhibitory activity” (Shionogi & Co., Ltd., priority 1995, dated 1999).

The structures appear in SMILES notation.

For one test, the target named is T1, cPLA2 (Homo sapiens, UniProt P47712).
T1 sequence (P47712 1-749): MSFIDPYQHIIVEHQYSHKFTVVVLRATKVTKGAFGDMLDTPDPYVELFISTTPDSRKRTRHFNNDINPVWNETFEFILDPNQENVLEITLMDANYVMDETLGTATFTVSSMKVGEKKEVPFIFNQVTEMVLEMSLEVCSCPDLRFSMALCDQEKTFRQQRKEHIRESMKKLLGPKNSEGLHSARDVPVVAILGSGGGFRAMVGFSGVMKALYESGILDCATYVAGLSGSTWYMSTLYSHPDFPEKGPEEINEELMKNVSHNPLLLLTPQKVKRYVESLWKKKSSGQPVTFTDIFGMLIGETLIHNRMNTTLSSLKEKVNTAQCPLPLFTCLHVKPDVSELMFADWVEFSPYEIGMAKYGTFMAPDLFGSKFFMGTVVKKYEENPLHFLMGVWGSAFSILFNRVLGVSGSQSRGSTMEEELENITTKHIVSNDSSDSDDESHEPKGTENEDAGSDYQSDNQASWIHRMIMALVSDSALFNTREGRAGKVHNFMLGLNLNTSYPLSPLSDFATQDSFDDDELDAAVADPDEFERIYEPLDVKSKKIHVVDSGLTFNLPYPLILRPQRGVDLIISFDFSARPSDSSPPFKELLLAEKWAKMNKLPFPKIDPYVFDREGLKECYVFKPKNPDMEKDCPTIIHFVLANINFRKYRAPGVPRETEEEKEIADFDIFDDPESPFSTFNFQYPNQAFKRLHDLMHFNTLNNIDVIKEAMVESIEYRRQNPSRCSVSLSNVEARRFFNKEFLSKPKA
The test can be described thus: cPLA2 Inhibitory activity (release of radiolabelled fatty acid from liposomes). As to conditions: 50 mM HEPES pH 7.4, 1 mM CaCl2, 2.5 μM radio-labeled phosphatidylcholine, 15 min at 37° C; read-out: cPLA2 Inhibition Activity IC50. The class given is biochemical. As to the method: Experiment 1 cPLA2 Inhibitory activity
The compounds of the present invention was tested for the cPLA2 inhibitory activity by a method known in a literature (R. M. Kramer, E. F. Roberts, J. Manetta and J. E. Putnam, J. Biol. Chem., 268(8), 5268-5272 ([…])), as outlined below.
As a substrate, liposomes which contain 1-palmitoyl-2-[^14 C]-arachidonoyl-sn-glycero-3-phosphocholine and sn-1,2-dioleoylglycerol at the ratio of 2:1 and have treated ultrasonically were used. The substrate was added to a 50 mM HEPES buffer (pH 7.4) (200 μl) containing 1 mM CaCl2, 2 mM dithiothreitol, 150 mM NaCl, 0.1 mg/ml BSA so as to make the concentration of radio-labeled phosphatidylcholine 2.5 μM. To the solution was added a compound of the present invention in DMSO (10 μl) to obtain reaction solutions each containing the test compound at 250 μM, 50 μM, 10 μm, 2 μM, and 0.4 μM. The reaction was allowed to start by adding an enzyme (cPLA2) (4 ng) and continued for 15 min at 37° C.
The amount of fatty acids released by the reaction was measured on a liquid scintillation counter. Control was obtained by conducting the experiment in the same manner except that a compound of the present invention was not added. The inhibitory activity was expressed as percent (%) to the control value, which was used for the calculation of the concentration required for 50% inhibition (IC50, μM).

Test [1] has as its system Prostaglandin E2 production in human fibroblasts. Kind of test: Inhibition of Production of Prostaglandin E2 in Human Fibroblasts (IL-1 stimulated). The format is cell-based. The following applies: Fibroblast, stimulation with IL-1, read-out: Inhibitory activity Against the Production of Prostaglandin E2 in Human Fibroblasts IC50. How it is done:
Experiment 2 Inhibition of Production of Prostaglandin E2 in Human Fibroblasts
From this viewpoint, the compounds of the present invention were tested for the effect on the production of prostaglandin E2 by human fibroblasts under the stimulation with IL-1 according to the method of J. M. Dayer et al (CACHECTIN/TUMOR NECROSIS FACTOR STIMULATES COLLAGENASE AND PROSTAGLANDIN E2 PRODUCTION BY HUMAN SYNOVIAL CELLS AND DERMAL FIBROBLASTS; J. M. Dayer, B. Beutlerm and A. Cerami, J. Exp. Med., 162,2163-2168, 1985).

One may read the IC50 as the concentration needed to halve the response being measured.

Regarding `O=C1NC(=O)C(=Cc2ccc(NC(=O)[C@@H]3C[C@H](SCc4ccccc4)CN3C(=O)c3ccccc3)cc2)S1` [Compound A-3], the IC50 is 5.3 µM at cPLA2 and 2400 nM in test [1].
For `COc1c(C(C)(C)C)cc(CS[C@H]2C[C@@H](C(=O)Nc3ccc(C=C4SC(=O)NC4=O)cc3)N(C(=O)c3ccccc3)C2)cc1C(C)(C)C` [Compound A-4] the same measures were 1.6 µM and 4900 nM.
With `O=C1NC(=O)C(=Cc2ccc(NC(=O)[C@@H]3C[C@H](SCc4ccc5ccccc5c4)CN3C(=O)c3ccccc3)cc2)S1` [Compound A-5], the IC50 on cPLA2 stood at 3.6 µM; in test [1], 7000 nM.
For `O=C1NC(=O)C(=Cc2ccc(NC(=O)[C@@H]3C[C@H](SCc4ccc(-c5ccccc5)cc4)CN3C(=O)c3ccccc3)cc2)S1` [Compound A-6] the same measures were 3.3 µM and 8200 nM.
For `O=C1NC(=O)C(=Cc2ccc(NC(=O)[C@@H]3C[C@H](SCc4ccc(C(F)(F)F)cc4)CN3C(=O)c3ccccc3)cc2)S1` [Compound A-7] the same measures were 5.3 µM and 4500 nM.
For `O=C1NC(=O)C(=Cc2ccc(NC(=O)[C@@H]3C[C@H](SCc4ccc(C(F)(F)F)cc4C(F)(F)F)CN3C(=O)c3ccccc3)cc2)S1` [Compound A-8] the same measures were 4.8 µM and 2500 nM.
With `COc1cc(CS[C@H]2C[C@@H](C(=O)Nc3ccc(C=C4SC(=O)NC4=O)cc3)N(C(=O)c3ccccc3)C2)cc(OC)c1OC` [Compound A-9], the IC50 on cPLA2 is 5.1 µM; in test [1], 3000 nM.
Take `CC(C)=CCCC(C)=CCS[C@H]1C[C@@H](C(=O)Nc2ccc(C=C3SC(=O)NC3=O)cc2)N(C(=O)c2ccccc2)C1` [Compound A-11]: the half-maximal inhibitory concentration (IC50) on cPLA2 is 4.7 µM; in test [1], 8500 nM.
In the case of `O=C1NC(=O)C(=Cc2ccc(NC(=O)[C@@H]3C[C@H](SC(c4ccccc4)c4ccccc4)CN3C(=O)c3ccccc3)cc2)S1` [Compound A-12], the IC50 was found to be 1.3 µM at cPLA2 and 1600 nM in test [1].
For `CC(C)S[C@H]1C[C@@H](C(=O)Nc2ccc(C=C3SC(=S)NC3=O)cc2)N(C(=O)OC(C)(C)C)C1` [Compound A-16] the same measures were 22 µM and 2900 nM.
For `CC(C)(C)OC(=O)N1C[C@@H](SCc2ccccc2)C[C@H]1C(=O)Nc1ccc(C=C2SC(=S)NC2=O)cc1` [Compound A-17] the same measures were 6 µM and 3200 nM.
On to `CS[C@H]1C[C@@H](C(=O)Nc2ccc(C=C3SC(=O)NC3=O)cc2)N(C(=O)c2ccc(-c3ccccc3)cc2)C1` [Compound A-20], for which the results for the IC50 (on cPLA2; in test [1]) were 22 µM and 300 nM, respectively.
For `CS[C@H]1C[C@@H](C(=O)Nc2ccc(C=C3SC(=S)NC3=O)cc2)N(C(=O)c2ccc(-c3ccccc3)cc2)C1` [Compound A-21] the same measures were 18 µM and 1000 nM.
For `O=C1NC(=S)SC1=Cc1ccc(NC(=O)[C@@H]2C[C@H](SCc3ccccc3)CN2C(=O)c2cccnc2)cc1` [Compound A-23] the same measures were 10 µM and 8600 nM.
For `O=C1NC(=S)SC1=Cc1ccc(NC(=O)[C@@H]2C[C@H](SCc3ccccc3)CN2C(=O)c2ccncc2)cc1` [Compound A-24] the same measures were 9.2 µM and 4900 nM.
In the case of `CS[C@H]1C[C@@H](C(=O)Nc2ccc(C=C3SC(=O)NC3=O)cc2)N(C(=O)Cc2ccc(Br)cc2)C1` [Compound A-25], the IC50 on cPLA2 amounted to 18 µM; in test [1], 8000 nM.
For `CS[C@H]1C[C@@H](C(=O)Nc2ccc(C=C3SC(=S)NC3=O)cc2)N(C(=O)Cc2ccc(Br)cc2)C1` [Compound A-26] the same measures were 2.8 µM and 1800 nM.
For `CC(C)S[C@H]1C[C@@H](C(=O)Nc2ccc(C=C3SC(=S)NC3=O)cc2)N(C(=O)Cc2ccc(Br)cc2)C1` [Compound A-27] the same measures were 5.1 µM and 2600 nM.
For `O=C1NC(=S)SC1=Cc1ccc(NC(=O)[C@@H]2C[C@H](SCc3ccccc3)CN2C(=O)Nc2ccccc2)cc1` [Compound A-28] the same measures were 8.3 µM and 730 nM.
For the molecule `O=C1NC(=S)SC1=Cc1ccc(NC(=O)[C@@H]2C[C@H](SCc3ccccc3)CN2C(=S)Nc2ccccc2)cc1` [Compound A-29], the IC50 worked out at 5.9 µM on cPLA2 and 1200 nM in test [1].
As for `CCCCNC(=O)N1C[C@@H](SCc2ccccc2)C[C@H]1C(=O)Nc1ccc(C=C2SC(=S)NC2=O)cc1` [Compound A-30], the IC50 is 16 µM at cPLA2 and 510 nM in test [1].
For `CC(=O)Nc1c(Cl)cc(S(=O)(=O)N2C[C@@H](SCc3ccccc3)C[C@H]2C(=O)Nc2ccc(/C=C3\SC(=S)NC3=O)cc2)cc1Cl` [Compound A-37] the same measures were 1.6 µM and 6900 nM.
Turning to `O=C1NC(=S)S/C1=C\c1ccc(NC(=O)[C@@H]2C[C@H](SCc3ccccc3)CN2S(=O)(=O)Cc2c(Cl)cccc2Cl)cc1` [Compound A-53], the IC50 in test [1] amounted to 830 nM.
Same read-out and setting: as for `O=C1NC(=O)C(=C(CO)c2ccc(NC(=O)[C@@H]3C[C@H](SCc4ccccc4)CN3C(=O)Cc3ccc(Br)cc3)cc2)S1` [Compound D-3], the figure is 7100 nM.
As for `CC(=O)Oc1ccc(OC(C)=O)c(CCCCCCC(=O)N2C[C@@H](OC(c3ccccc3)c3ccccc3)C[C@H]2CNC(=O)c2ccc(/C=C3\SC(=O)NC3=O)cc2)c1` [Compound H-15], the IC50 at cPLA2 was found to be 11 µM.
In the case of `O=C1NC(=O)/C(=C/c2ccc(S(=O)(=O)NC[C@@H]3CC(OCc4ccc(F)cc4F)CN3S(=O)(=O)Cc3ccc(Br)cc3)cc2)S1` (stereo partly drawn) [Compound H-19], the IC50 on cPLA2 is 8.6 µM.
On the same count and under the same terms, for `O=C1NC(=O)/C(=C/c2ccc(S(=O)(=O)NC[C@@H]3CC(OCc4ccc(F)cc4F)CN3S(=O)(=O)c3ccc(Cc4ccccc4)cc3)cc2)S1` (stereo partly drawn) [Compound H-20] the value was 6.6 µM.
The same measure, in the same setting: as for `O=C1NC(=O)C(=C(CO)c2ccc(NC(=O)[C@@H]3CC(OC(c4ccccc4)c4ccccc4)CN3C(=O)c3ccccc3)cc2)S1` (stereo partly drawn) [Compound I-1], the figure is 26 µM; as for `O=C1NC(=O)C(=C(CO)c2ccc(NC(=O)C3CC(OC(c4ccccc4)(c4ccccc4)c4ccccc4)CN3C(=O)c3ccccc3)cc2)S1` (stereo not drawn) [Compound I-2], 3.5 µM; as for `O=C1NC(=O)/C(=C/c2ccc(NC(=O)[C@@H]3C[C@H](NCc4ccccc4)CN3C(=O)Cc3ccc(Br)cc3)cc2)S1` [Compound J-1], 21 µM.
The same measure, in the same setting: for `O=C1NC(=S)S/C1=C\c1ccc(NC(=O)[C@@H]2CCCN2C(=O)Cc2ccc(Br)cc2)cc1` [Compound L-1] the value was 5.3 µM.
`O=C1NC(=O)/C(=C/c2ccc(NC(=O)[C@@H]3C[C@@H](SCc4ccccc4)CN3S(=O)(=O)c3ccc(-c4ccccc4)cc3)cc2)S1` [Compound M-1]: on cPLA2, the IC50 turned out to be 23 µM.
On the same count and under the same terms, for `O=C1NC(=O)/C(=C/c2ccc(NC(=O)[C@H]3C[C@H](SCc4ccccc4)CN3S(=O)(=O)c3ccc(-c4ccccc4)cc3)cc2)S1` [Compound M-2] the value was 15 µM; for `O=C1NC(=O)/C(=C/c2ccc(NC(=O)[C@H]3C[C@@H](SCc4ccccc4)CN3S(=O)(=O)c3ccc(-c4ccccc4)cc3)cc2)S1` [Compound M-3], 10 µM.
Same read-out and setting: as for `O=C1NC(=O)C(=Cc2ccc(COC3CC(CNC(=O)c4ccc(-c5ccccc5)cc4)N(C(=O)c4ccccc4)C3)cc2)S1` (stereo not drawn) [Compound N-1], the figure is 6.6 µM.
